TGI and GI50 data for 21 compounds are collected here from PubChem BioAssay (NCI).

The term TGI denotes the concentration giving total growth inhibition. The low end stands for greater sensitivity of the cells, the high end for lower sensitivity of the cells. One may read the GI50 as the concentration that inhibits growth by half.

Holding throughout (test): DTP human tumour cell line panel, 48 h
For test [1], the system named is A549 NSCLC.
Test [2] deals with COLO 205 colon.
Test [3] relates to HCT-116 colon.
The subject of test [4] is HCT-15 colon.
Test [5] deals with HS 578T breast.
In test [6] the test system is K-562 leukemia.
The subject of test [7] is MCF7 breast.
Test [8] has as its system OVCAR-5 ovarian.
The test system of test [9] is RPMI-8226 leukemia.
The subject of test [10] is SNB-19 CNS.
The subject of test [11] is SNB-75 CNS.
The test system of test [12] is TK-10 renal.
Test [13] concerns 786-0 renal.
Test [14] concerns A498 renal.

Structures are written as SMILES. Where “and” joins values, the source holds several entries; their conditions need not be identical. Equal entries are not always repeated.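 Five concentrations, 48 hours, 96-well plates. The concentration for 50% growth inhibition is given as GI50. At the TGI there is no net growth.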

Turning to `CCSc1nc(N)c2c(-c3ccc(OC)c(OC)c3)c3c(nc2n1)CCCC3`, the TGI in test [1], in test [2], in test [3], in test [4], in test [5] and in test [6] was above 100 µM each time. For the same compound, the concentration for total growth inhibition (TGI) in test [7], in test [8], in [9], in [10], in [11] and in [12] was above 100 µM in each case.

`CCC(=O)Nc1ccc(N=Cc2cccc(Oc3ccccc3)c2)cc1`: the total growth inhibition concentration (TGI) in test [13], in test [14], in test [1], in test [2], in test [3] and in [4] was above 100 µM each time. The total growth inhibition concentration (TGI) in test [5] is above 100 µM; in test [6] it was above 100 µM; in test [7] it was above 100 µM; in [9], 63.1 µM; in test [10], above 100 µM; in test [11], above 100 µM.

For `O=C1/C(=C/c2cccnc2)C(n2cccc2)c2c(Br)sc(Br)c21` (stereo not given), the TGI in test [13] was 6.17 µM; in [14], 30.4 µM; in test [1], 32.5 µM; in test [2] it was 21.6 µM; in [3] it was 4.97 µM; in [4] it was 4.96 µM. For the same compound, the TGI was 9.66 µM in [5]; 7.39 µM in [6]; 4.02 µM in test [7]; 31.9 µM in test [8]; 4.94 µM in [9]; 9.65 µM in [10]. Also, the TGI came to 3.67 µM in test [11] and 4.28 µM in test [12].

On to `CC1C(=O)OC2CC[N+]3(CC(=O)c4ccc(Br)cc4)CC=C(COC(=O)C(C)(O)C1(C)O)C23` (stereo not given), for which the TGI in [14], in test [1], in test [2], in test [3], in test [4] and in test [6] was above 375 µM throughout. Also, the TGI in test [7], in test [8], in [9], in [10] and in test [11] was above 375 µM in each case.

For the compound `N#C[S-].[Nd+3].c1cnc2c(c1)ccc1cccnc12.c1cnc2c(c1)ccc1cccnc12.c1cnc2c(c1)ccc1cccnc12`, the TGI in test [13] is 11.8 µM; in test [14] it was 13.6 µM; in test [1], 10.5 µM; in [2] it was 15.6 µM; in test [3] it was 6.43 µM; in test [6], above 100 µM. The total growth inhibition concentration (TGI) in test [8] is 15.3 µM; in test [9] it was above 100 µM; in test [10] it was 20.3 µM; in test [11], 26.2 µM; in [12] it was 22 µM.

Turning to `Cc1cc(NC(=S)Nc2ccccc2)c(NC(=S)Nc2ccccc2)cc1C`, the TGI in test [14] is 98.3 µM; in test [1], above 100 µM; in [2], above 74.3 µM; in test [3] it was above 100 µM; in [4], above 100 µM; in test [6], 41.2 µM. In addition, the TGI in test [7] is 98.6 µM; in [8], above 100 µM; in [9] it was 40.4 µM; in test [10], above 100 µM; in [11], above 94.7 µM.

With `CC1=C(C)C(=O)O[C@@H]([C@](C)(O)[C@]2(O)CC[C@@]3(O)[C@@H]4C[C@H]5O[C@]56[C@@H](O)C=CC(=O)[C@]6(C)[C@H]4CC[C@]23C)C1`, the GI50 in test [14] was 1.12 µM and 0.376 µM; in test [2], 0.0847 µM and 0.0461 µM; in test [4], 0.169 µM; in [6] it was 0.126 µM and 0.0515 µM; in test [7], 0.164 µM; in test [8], 3.55 µM and 1.47 µM. For the same compound, the concentration for total growth inhibition (TGI) was 11.1 µM and 2.08 µM in test [14]; 24 µM and 30.9 µM in [1]; 0.436 µM and 0.255 µM in [2]; 2.88 µM in [3]; 2.87 µM and 3.02 µM in [4]; 2.62 µM and 15 µM in test [6]. The TGI in test [7] is 2.94 µM and 3.41 µM; in test [8], 8.44 µM and 5.88 µM; in test [10], 31.1 µM; in test [11] it was 0.884 µM.

In the case of `COc1cc2c(cc1OCCCOc1cc(-c3ccc(F)cc3)nc(C)n1)N=C[C@@H]1CCCN1C2=O`, the total growth inhibition concentration (TGI) in test [13] is 31.5 µM; in test [14] it was 26.4 µM; in test [1], 43 µM; in test [2], above 100 µM; in [3], 30.6 µM; in test [4] it was 25.8 µM. For the same compound, the total growth inhibition concentration (TGI) is 94.3 µM in test [5]; above 100 µM in [7]; above 100 µM in [9]; 64.4 µM in test [10]; 49.1 µM in test [11]; 34.5 µM in [12].

Regarding `Nc1ccccc1CCCC(=O)O`, the TGI in test [13], in test [14], in test [1], in test [2], in test [3] and in [4] was above 100 µM in each case. For the same compound, the total growth inhibition concentration (TGI) in [5], in test [6], in [7], in [8], in test [9] and in test [10] was above 100 µM in each case. Also, the TGI in test [11] and in test [12] was above 100 µM in each case.

Turning to `O=C(O)CNC(=O)CO/N=C1/C(c2c(O)[nH]c3ccccc23)=Nc2ccccc21`, the TGI in test [13], in test [1], in test [2], in test [3], in test [4] and in [5] was above 100 µM each time. Also, the concentration for total growth inhibition (TGI) in test [6], in test [7], in test [8], in test [9], in test [10] and in test [11] was above 100 µM each time. Further, in test [12], the total growth inhibition concentration (TGI) is above 100 µM.

As for `Cc1ccc(CC(=O)Nc2ccc(NC(=O)/C=C/NC(=O)/C=C/c3ccc(-c4ccccc4)cc3)cc2C(=O)c2ccccc2)cc1`, the TGI in [13] is 3.34 µM; in test [14], 5.31 µM; in [1], 4.32 µM; in test [2], 4.53 µM; in test [3], 2.96 µM; in [4], 9.53 µM. The TGI in test [5] is 3.74 µM; in test [6] it was above 100 µM; in test [7], 4.92 µM; in test [8], 5.77 µM; in test [9] it was 14.7 µM; in [10], 16 µM. For the same compound, the total growth inhibition concentration (TGI) in [11] turned out to be 6.59 µM; in test [12] it was 8.72 µM.

`COCc1nc2c(OC)cc(-c3nc4nc(N5CCN(C)CC5)ccc4[nH]3)c(OC)c2[nH]1`: the TGI in test [13], in test [14], in test [1], in test [2], in [3] and in test [4] was above 100 µM each time. For the same compound, the TGI in [5], in test [6], in [7], in test [8], in test [10] and in test [11] was above 100 µM each time. For the same compound, in test [12], the concentration for total growth inhibition (TGI) is above 100 µM.

As to `Cn1c2ccccc2c2c(-c3ccccc3)[n+]3ccccc3nc21`, the TGI is 65.4 µM in [13]; above 100 µM in [14]; above 100 µM in test [1]; above 100 µM in test [2]; above 100 µM in test [4]; above 100 µM in test [5]. The TGI in test [6] is above 100 µM; in test [8] it was above 100 µM; in test [9], 40.8 µM; in test [10] it was above 100 µM; in test [11], above 100 µM; in test [12], 85 µM.

Regarding `COC(=O)CCC(=O)CC(=O)C1=NS(=O)(=O)c2nc(S(N)(=O)=O)c(Cl)cc2N1`, the total growth inhibition concentration (TGI) in [14], in [1], in test [2], in test [3], in [4] and in test [6] was above 100 µM in each case. For the same compound, the TGI in test [8], in [9], in test [10], in test [11] and in [12] was above 100 µM throughout.

Turning to `O=c1[nH]c(Nc2ccc(F)c(Cl)c2)nc2nc[nH]c12`, the concentration for total growth inhibition (TGI) in test [13], in test [14], in test [1], in [2], in [3] and in test [4] was above 100 µM throughout. The concentration for total growth inhibition (TGI) in test [5] is above 100 µM; in test [7], above 100 µM; in [8] it was above 100 µM; in test [9] it was above 100 µM; in [10], above 100 µM; in [11], 97.8 µM. Besides, the TGI in [12] is above 100 µM.

For the compound `CN(C)c1ccc(/C=C2/SC(=S)NC2=O)cc1`, the TGI in test [13], in [14], in [1], in test [2], in test [3] and in test [4] was above 100 µM each time. The TGI in test [5] is above 100 µM; in test [6] it was above 100 µM; in test [7] it was above 100 µM; in test [8] it was 72.6 µM; in [9], above 100 µM; in test [10], above 100 µM. Also, the concentration for total growth inhibition (TGI) in test [11] was above 100 µM; in test [12], 53 µM.

As for `C[n+]1c2ccccc2c(CNc2ccc(S(=O)(=O)N=C(N)N)cc2)c2ccccc21`, the total growth inhibition concentration (TGI) in test [13] was 43.4 µM; in [14], 86.2 µM; in test [1] it was above 100 µM; in [3] it was 27.2 µM; in test [4], 32.3 µM; in [6] it was 52 µM. Besides, the TGI in [8] is above 100 µM; in test [9], 23.5 µM; in test [10], 31.6 µM; in test [11], 39.9 µM; in test [12], above 100 µM.

For the compound `CC(C)(C)NCc1cc(Nc2ccnc3cc(Cl)ccc23)cc(-c2ccc(Cl)cc2)c1O`, the TGI in [13] was 3.98 µM; in [14], 11.5 µM; in test [1], 20.6 µM; in [2], 3.35 µM; in test [3], 5.79 µM; in [4], 9.96 µM. Further, the total growth inhibition concentration (TGI) was 6.37 µM in [5]; 2.75 µM in test [6]; 3.13 µM in test [7]; 16.3 µM in test [8]; 4.12 µM in [9]; 18.2 µM in test [10]. Also, the results for the total growth inhibition concentration (TGI) in [11] and in [12] were 5.13 µM and 7.76 µM, respectively.

On to `COCO[C@@H]1C[C@H]2C(O)Nc3ccccc3C(=O)N2C1` (stereo not given in full), for which the TGI in [14], in test [1], in [2], in [4], in [5] and in test [6] was above 100 µM in each case. Also, the total growth inhibition concentration (TGI) in test [7], in test [8], in [9], in test [10], in test [11] and in test [12] was above 100 µM throughout.

As for `CC(C)=CC1C(COC(=O)c2cc3c(cc2Cl)OCO3)C1(C)C` (stereo not given), the TGI was above 100 µM in [13]; 90.6 µM in [14]; above 100 µM in [1]; above 100 µM in [3]; 92.6 µM in test [4]; 53.8 µM in [5]. For the same compound, the TGI in test [6], in test [8], in test [10] and in [12] was above 100 µM each time.

For the compound `CC1=NN(c2cccc(Cl)c2)C2(SCC(=O)N2c2nc3ccccc3s2)/C1=C\c1ccc(Cl)cc1` (stereo not given), the TGI came to 48.1 µM in [13]; 40.2 µM in [14]; 31.3 µM in test [3]; 38.1 µM in test [4]; 73.6 µM in test [5]; 41.3 µM in test [6]. For the same compound, the total growth inhibition concentration (TGI) in test [7] was 87 µM; in [8], 55.4 µM; in test [9], 39.5 µM; in test [12] it was above 100 µM.
